Source: patent publication US20200268702A1, “METHODS OF TREATING […]” (Amarin Pharmaceuticals Ireland Limited, priority 2013, published 2020)

Test: Essential fatty acid parameters in plasma and RBC, 6-week AAMI study
Type: in vivo, human
Procedure: Blood samples (10 mL) were collected at Visit 1 (screening) and at Visits 4, 5 and 6. Analysis was performed by MSR Lipid Analysis, Scottish Crop Research Institute, Dundee, UK. The screening sample acted as baseline for the EFA measurements. Lipid was extracted from plasma, serum and RBC suspensions and converted into fatty acid methyl esters which were analyzed by gas chromatography to give fatty acid profiles as micrograms fatty acid per gram of sample (μgFA/g) and normalized area percent. RBC and plasma EFA data were collected at baseline, Day 14, 28 and 42 and summarized by visit for each treatment group. Change from baseline and percent change from baseline were also summarized. ANCOVA comparison of ethyl-EPA dose groups and ethyl-EPA versus placebo was performed.

## CC/C=C\C/C=C\C/C=C\C/C=C\C/C=C\CCCC(=O)OCC [AMR101, ethyl eicosapentaenoate]
1 g daily, Day 14
  AA, Plasma, Mean (SD) change from Baseline: −9.7 (22.20) μg/g
  AA, RBC, Mean (SD) change from Baseline: −8.1 (21.95) μg/g
  DGLA, Plasma, mean (SD) change from Baseline: −10.4 (10.90) μg/g
  DGLA, RBC, mean (SD) change from Baseline: −2.7 (3.82) μg/g
  DHA, Plasma, Mean (SD) change from Baseline: −6.4 (13.30) μg/g
  DHA, RBC, Mean (SD) change from Baseline: −4.6 (9.76) μg/g
1 g daily, Day 28
  AA, Plasma, Mean (SD) change from Baseline: −11.3 (28.13) μg/g
  AA, RBC, Mean (SD) change from Baseline: −17.0 (20.69) μg/g
  DGLA, Plasma, mean (SD) change from Baseline: −10.6 (10.23) μg/g
  DGLA, RBC, mean (SD) change from Baseline: −3.8 (3.31) μg/g
  DHA, Plasma, Mean (SD) change from Baseline: −6.6 (15.53) μg/g
  DHA, RBC, Mean (SD) change from Baseline: −6.4 (11.57) μg/g
1 g daily, Day 42
  AA, Plasma, Mean (SD) change from Baseline: −8.7 (31.35) μg/g
  AA, RBC, Mean (SD) change from Baseline: −14.2 (27.69) μg/g
  DGLA, Plasma, mean (SD) change from Baseline: −9.4 (9.41) μg/g
  DGLA, RBC, mean (SD) change from Baseline: −3.5 (4.51) μg/g
  DHA, Plasma, Mean (SD) change from Baseline: −5.4 (18.17) μg/g
  DHA, RBC, Mean (SD) change from Baseline: −7.0 (12.20) μg/g
  EPA/AA, Plasma, mean (SD) change from Baseline: 0.3
1 g versus 4 g
  AA, Plasma, LS Mean, 1 g versus 4 g: 4.2 µg/g
  AA, RBC, LS Mean, 1 g versus 4 g: 8.4 µg/g
  DGLA, Plasma, LS mean, 1 g versus 4 g: 3.7 µg/g
  DGLA, RBC, LS mean, 1 g versus 4 g: 1.5 µg/g
  DHA, Plasma, LS mean, 1 g versus 4 g: -0.8 µg/g
  DHA, RBC, LS mean, 1 g versus 4 g: 1.0 µg/g
2 g daily, Day 14
  AA, Plasma, Mean (SD) change from Baseline: −13.9 (22.13) μg/g
  AA, RBC, Mean (SD) change from Baseline: −3.1 (25.84) μg/g
  DGLA, Plasma, mean (SD) change from Baseline: −14.1 (6.88) μg/g
  DGLA, RBC, mean (SD) change from Baseline: −2.6 (3.54) μg/g
  DHA, Plasma, Mean (SD) change from Baseline: −5.4 (14.29) μg/g
  DHA, RBC, Mean (SD) change from Baseline: −2.0 (9.46) μg/g
2 g daily, Day 28
  AA, Plasma, Mean (SD) change from Baseline: 21.6 (28.32) μg/g
  AA, RBC, Mean (SD) change from Baseline: −14.1 (26.89) μg/g
  DGLA, Plasma, mean (SD) change from Baseline: −16.2 (9.88) μg/g
  DGLA, RBC, mean (SD) change from Baseline: −4.5 (3.58) μg/g
  DHA, Plasma, Mean (SD) change from Baseline: −8.1 (15.82) μg/g
  DHA, RBC, Mean (SD) change from Baseline: −6.2 (9.34) μg/g
2 g daily, Day 42
  AA, Plasma, Mean (SD) change from Baseline: −27.3 (26.76) μg/g
  AA, RBC, Mean (SD) change from Baseline: −18.8 (25.62) μg/g
  DGLA, Plasma, mean (SD) change from Baseline: −17.3 (9.92) μg/g
  DGLA, RBC, mean (SD) change from Baseline: −5.3 (3.65) μg/g
  DHA, Plasma, Mean (SD) change from Baseline: −6.0 (16.69) μg/g
  DHA, RBC, Mean (SD) change from Baseline: −6.3 (9.42) μg/g
2 g versus 4 g
  AA, Plasma, LS Mean, 2 g versus 4 g: 15.6 µg/g
  AA, RBC, LS Mean, 2 g versus 4 g: 9.8 µg/g
  DGLA, Plasma, LS mean, 2 g versus 4 g: 2.5 µg/g
  DGLA, RBC, LS mean, 2 g versus 4 g: 1.5 µg/g
  DHA, Plasma, LS mean, 2 g versus 4 g: 1.5 µg/g
  DHA, RBC, LS mean, 2 g versus 4 g: 1.0 µg/g
4 g daily, Day 14
  AA, Plasma, Mean (SD) change from Baseline: −27.2 (28.89) μg/g
  AA, RBC, Mean (SD) change from Baseline: −15.7 (26.76) μg/g
  DGLA, Plasma, mean (SD) change from Baseline: −22.9 (9.00) μg/g
  DGLA, RBC, mean (SD) change from Baseline: −5.3 (4.10) μg/g
  DHA, Plasma, Mean (SD) change from Baseline: −10.3 (13.35) μg/g
  DHA, RBC, Mean (SD) change from Baseline: −6.9 (9.13) μg/g
4 g daily, Day 28
  AA, Plasma, Mean (SD) change from Baseline: −43.7 (32.24) μg/g
  AA, RBC, Mean (SD) change from Baseline: −22.8 (29.56) μg/g
  DGLA, Plasma, mean (SD) change from Baseline: −24.2 (10.73) μg/g
  DGLA, RBC, mean (SD) change from Baseline: −7.1 (4.63) μg/g
  DHA, Plasma, Mean (SD) change from Baseline: −13.5 (14.10) μg/g
  DHA, RBC, Mean (SD) change from Baseline: −8.7 (11.63) μg/g
4 g daily, Day 42
  AA, Plasma, Mean (SD) change from Baseline: −48.3 (22.20) μg/g
  AA, RBC, Mean (SD) change from Baseline: −34.4 (31.44) μg/g
  DGLA, Plasma, mean (SD) change from Baseline: −22.5 (10.87) μg/g
  DGLA, RBC, mean (SD) change from Baseline: −8.0 (4.98) μg/g
  DHA, Plasma, Mean (SD) change from Baseline: −13.8 (15.31) μg/g
  DHA, RBC, Mean (SD) change from Baseline: −13.8 (13.76) μg/g
Plasma and RBC, 1, 2 and 4 g treatment groups
  EPA, DPAn-3 and EPA/AA ratio values, change from baseline to Day 42: increased substantially
